# Test results: patent US10138282B2, “Peptide antagonist of LL-37” (INDIANA UNIVERSITY RESEARCH AND TECHNOLOGY CORPORATION, priority 2014, dated 2018)
# Legend:
# Format in all cases: cell-based, human
# Toll-like receptor 9 = assay: IL-6 production in BEAS-2B cells in the presence of ssDNA ligand ODN
# Reovirus dsRNA, Reo S4 = assay: IL-6 production in BEAS-2B cells in the presence of Reovirus dsRNA Reo S4
# Protocol: (§1) IL-6 production was quantified by ELISA using the OptEIA™ kit (BD Biosciences). A typical assay used 2×10^4 BEAS-2B cells/well grown for 24 h in flat bottom 96-well plates. Poly(I:C) was added to a final concentration of 0.13 μg/ml. Antimicrobial peptides were added to the cell culture medium to a final concentration of 3 μM unless specified otherwise. All ELISA results shown were performed in triplicate and in at least three independent experiments.
# Herein, we analyzed the LL-37 orthologs from Rhesus monkeys, pig, sheep, guinea pigs, rabbit, as well as mouse (FIG. 14A). All peptides were chemically synthesized and assayed for the induction of inflammatory cytokine IL-6 in the presence of the double-stranded RNA mimic, poly(I:C) or the Reovirus dsRNA, Reo S4 (FIGS. 14B and 14C). […] Importantly, all LL-37 orthologs tested had the ability to reduce IL-6 production in response to LPS (FIG. 14E).
# TLR3 signaling = assay: IL-6 production (ELISA) in BEAS-2B cells induced with poly(I:C); settings: BEAS-2B cells
# Protocol: as §1
# To better define how residues in LL-37 contribute to function, several variants derived from LL-37 were tested for: 1) repression of TLR4 signaling by LPS, 2) enhancement of TLR3 signaling by poly(I:C), and 3) binding to LL-37. Signaling by TLR3 and TLR4 were monitored using ELISA to detect IL-6 secreted into the medium of BEAS-2B cells.
substance,measurement,setting,value
"CAP-18: LL-37 ortholog from rabbit, SEQ ID NO: 24 (GLRKRLRKFRNKIKEKLKKIGQKIQGLLPKLAPRTDY; (1)..(37) Rabbit CAP-18)","Induction of signaling by the ssDNA ligand for Toll-like receptor 9, in words",Toll-like receptor 9,failed to induce signaling
same,"Enhancement of IL-6 production / signaling by Reo S4, in words","Reovirus dsRNA, Reo S4",failed to enhance signaling
same,"Enhancement of TLR3 signaling / poly(I:C)-induced IL-6, in words",TLR3 signaling,failed to enhance signaling
